Measured values: ChEMBL document CHEMBL2311352, “Discovery of 4-phenyl-2-phenylaminopyridine based TNIK inhibitors” (Bioorg Med Chem Lett, 2013)

Legend:
[1] = target: Tyrosine-protein kinase Fgr (Homo sapiens) (UniProt P09769); test: Inhibition of FGR (unknown origin) at 1 uM
[2] = target: CDK6/cyclin D1 (Homo sapiens) (UniProt P24385+Q00534); test: Inhibition of CDK6/Cyclin D1 (unknown origin) at 1 uM; assay type: protein-complex assay
[3] = target: Tyrosine-protein kinase ABL1 (Homo sapiens) (UniProt P00519); test: Inhibition of ABL1 (unknown origin) at 1 uM
[4] = target: Fibroblast growth factor receptor 3 (Homo sapiens) (UniProt P22607); test: Inhibition of FGFR3 (unknown origin) at 1 uM
[5] = Apparent permeability across apical to basolateral side in human Caco2 cells; assay type: ADME, cell-based; conditions: Caco-2
[6] = target: Homeodomain-interacting protein kinase 4 (Homo sapiens) (UniProt Q8NE63); test: Inhibition of HIPK4 (unknown origin) at 1 uM
[7] = target: Ephrin type-B receptor 1 (Homo sapiens) (UniProt P54762); test: Inhibition of EPHB1 (unknown origin) at 1 uM
[8] = target: Tyrosine-protein kinase JAK1 (Homo sapiens) (UniProt P23458); test: Inhibition of JAK1 (unknown origin) at 1 uM
[9] = target: Proto-oncogene tyrosine-protein kinase receptor Ret (Homo sapiens) (UniProt P07949); test: Inhibition of RET (unknown origin) at 1 uM
[10] = target: Aurora kinase B (Homo sapiens) (UniProt Q96GD4); test: Inhibition of aurora B (unknown origin) at 1 uM
[11] = target: Tyrosine-protein kinase Yes (Homo sapiens) (UniProt P07947); test: Inhibition of YES (unknown origin) at 1 uM
[12] = target: Receptor-type tyrosine-protein kinase FLT3 (Homo sapiens) (UniProt P36888); test: Inhibition of FLT3 (unknown origin) at 1 uM
[13] = target: Cyclin-dependent kinase 4/cyclin D1 (Homo sapiens) (UniProt P11802+P24385); test: Inhibition of CDK4/cyclin D1 (unknown origin) at 1 uM; assay type: protein-complex assay
[14] = target: T1, TRAF2 and NCK-interacting protein kinase (Homo sapiens, UniProt Q9UKE5); test: Competitive binding affinity to TNIK (unknown origin) in presence of ATP
[15] = target: Platelet-derived growth factor receptor beta (Homo sapiens) (UniProt P09619); test: Inhibition of PDGFRbeta (unknown origin) at 1 uM
[16] = target: Ribosomal protein S6 kinase beta-1 (Homo sapiens) (UniProt P23443); test: Inhibition of p70S6K (unknown origin) at 1 uM
[17] = target: Tyrosine-protein kinase JAK3 (Homo sapiens) (UniProt P52333); test: Inhibition of JAK3 (unknown origin) at 1 uM
[18] = target: T1, TRAF2 and NCK-interacting protein kinase; test: Ratio of IC50 for TNIK-mediated TCF4/[…] transcription in human HCT116 cells to IC50 for TNIK (unknown origin); assay type: cell-based; conditions: HCT-116
[19] = target: Tyrosine-protein kinase Lyn (Homo sapiens) (UniProt P07948); test: Inhibition of LYN (unknown origin) at 1 uM
[20] = target: Vascular endothelial growth factor receptor 1 (Homo sapiens) (UniProt P17948); test: Inhibition of VEGFR1 (unknown origin) at 1 uM
[21] = target: Tyrosine-protein kinase Fyn (Homo sapiens) (UniProt P06241); test: Inhibition of FYN (unknown origin) at 1 uM
[22] = target: Vascular endothelial growth factor receptor 3 (Homo sapiens) (UniProt P35916); test: Inhibition of VEGFR3 (unknown origin) at 1 uM
[23] = target: Platelet-derived growth factor receptor alpha (Homo sapiens) (UniProt P16234); test: Inhibition of PDGFRalpha (unknown origin) at 1 uM
[24] = target: Serine/threonine-protein kinase Chk1 (Homo sapiens) (UniProt O14757); test: Inhibition of CHK1 (unknown origin) at 1 uM
[25] = target: Ephrin type-A receptor 7 (Homo sapiens) (UniProt Q15375); test: Inhibition of EPHA7 (unknown origin) at 1 uM
[26] = target: Tyrosine-protein kinase SYK (Homo sapiens) (UniProt P43405); test: Inhibition of SYK (unknown origin) at 1 uM
[27] = target: Tyrosine-protein kinase Fer (Homo sapiens) (UniProt P16591); test: Inhibition of FER (unknown origin) at 1 uM
[28] = target: Dual specificity mitogen-activated protein kinase kinase 1 (Homo sapiens) (UniProt Q02750); test: Inhibition of MEK1 (unknown origin) at 1 uM
Sequence of Dual specificity mitogen-activated protein kinase kinase 1 (Homo sapiens) (Q02750 whole entry): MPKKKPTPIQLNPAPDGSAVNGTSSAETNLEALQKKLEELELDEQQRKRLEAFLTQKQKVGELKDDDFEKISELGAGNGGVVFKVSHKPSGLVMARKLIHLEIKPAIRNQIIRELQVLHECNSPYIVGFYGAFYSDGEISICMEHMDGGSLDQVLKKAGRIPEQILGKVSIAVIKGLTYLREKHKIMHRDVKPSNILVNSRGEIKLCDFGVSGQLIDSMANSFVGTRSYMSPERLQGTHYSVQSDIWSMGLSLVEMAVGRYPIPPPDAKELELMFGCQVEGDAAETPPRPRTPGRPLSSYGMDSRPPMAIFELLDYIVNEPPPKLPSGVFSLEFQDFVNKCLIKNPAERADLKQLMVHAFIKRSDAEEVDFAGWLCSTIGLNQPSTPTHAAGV

Sequence of Platelet-derived growth factor receptor alpha (Homo sapiens) (P16234 whole entry): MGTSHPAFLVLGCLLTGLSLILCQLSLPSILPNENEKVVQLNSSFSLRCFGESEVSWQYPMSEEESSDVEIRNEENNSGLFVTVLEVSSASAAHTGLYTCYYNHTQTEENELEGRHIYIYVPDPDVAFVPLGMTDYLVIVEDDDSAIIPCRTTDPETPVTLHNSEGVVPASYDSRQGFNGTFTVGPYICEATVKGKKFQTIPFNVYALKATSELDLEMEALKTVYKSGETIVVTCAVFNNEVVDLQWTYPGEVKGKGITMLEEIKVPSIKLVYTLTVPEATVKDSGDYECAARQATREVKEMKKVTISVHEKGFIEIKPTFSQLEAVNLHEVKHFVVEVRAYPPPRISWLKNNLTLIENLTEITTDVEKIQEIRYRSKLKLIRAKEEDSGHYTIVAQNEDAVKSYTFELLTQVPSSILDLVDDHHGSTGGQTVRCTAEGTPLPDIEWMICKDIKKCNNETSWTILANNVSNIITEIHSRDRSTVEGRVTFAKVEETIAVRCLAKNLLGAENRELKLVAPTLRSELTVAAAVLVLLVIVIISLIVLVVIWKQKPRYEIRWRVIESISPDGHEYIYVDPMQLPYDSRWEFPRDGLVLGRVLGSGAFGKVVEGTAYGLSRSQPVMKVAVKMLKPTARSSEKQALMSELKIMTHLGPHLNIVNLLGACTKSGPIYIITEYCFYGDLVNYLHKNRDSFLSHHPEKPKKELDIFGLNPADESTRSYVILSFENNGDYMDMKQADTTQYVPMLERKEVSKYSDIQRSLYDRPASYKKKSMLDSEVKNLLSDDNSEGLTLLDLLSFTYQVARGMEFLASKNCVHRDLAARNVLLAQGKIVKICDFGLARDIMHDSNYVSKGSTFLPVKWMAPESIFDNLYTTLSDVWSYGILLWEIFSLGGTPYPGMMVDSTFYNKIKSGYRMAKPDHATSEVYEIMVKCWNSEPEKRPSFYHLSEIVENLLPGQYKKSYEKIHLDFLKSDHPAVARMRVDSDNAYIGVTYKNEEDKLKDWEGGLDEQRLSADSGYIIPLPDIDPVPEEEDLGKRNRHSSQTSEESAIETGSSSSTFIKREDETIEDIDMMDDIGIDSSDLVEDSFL
Sequence of Ribosomal protein S6 kinase beta-1 (Homo sapiens) (P23443 whole entry, looked up): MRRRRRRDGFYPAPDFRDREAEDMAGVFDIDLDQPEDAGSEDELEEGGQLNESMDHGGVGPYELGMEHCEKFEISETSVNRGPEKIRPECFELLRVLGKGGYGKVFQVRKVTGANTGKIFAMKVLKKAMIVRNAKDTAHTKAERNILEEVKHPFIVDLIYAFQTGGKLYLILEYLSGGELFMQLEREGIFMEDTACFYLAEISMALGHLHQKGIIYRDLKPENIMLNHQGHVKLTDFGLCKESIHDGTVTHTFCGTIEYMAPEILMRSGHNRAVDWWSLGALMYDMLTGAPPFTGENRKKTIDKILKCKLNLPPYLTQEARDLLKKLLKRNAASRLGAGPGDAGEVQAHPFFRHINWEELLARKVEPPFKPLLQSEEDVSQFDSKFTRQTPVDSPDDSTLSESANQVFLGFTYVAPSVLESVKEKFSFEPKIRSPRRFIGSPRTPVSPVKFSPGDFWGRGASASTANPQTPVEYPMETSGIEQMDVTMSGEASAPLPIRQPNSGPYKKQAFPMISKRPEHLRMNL
Sequence of Tyrosine-protein kinase Fgr (Homo sapiens) (P09769 2-529 limits assumed): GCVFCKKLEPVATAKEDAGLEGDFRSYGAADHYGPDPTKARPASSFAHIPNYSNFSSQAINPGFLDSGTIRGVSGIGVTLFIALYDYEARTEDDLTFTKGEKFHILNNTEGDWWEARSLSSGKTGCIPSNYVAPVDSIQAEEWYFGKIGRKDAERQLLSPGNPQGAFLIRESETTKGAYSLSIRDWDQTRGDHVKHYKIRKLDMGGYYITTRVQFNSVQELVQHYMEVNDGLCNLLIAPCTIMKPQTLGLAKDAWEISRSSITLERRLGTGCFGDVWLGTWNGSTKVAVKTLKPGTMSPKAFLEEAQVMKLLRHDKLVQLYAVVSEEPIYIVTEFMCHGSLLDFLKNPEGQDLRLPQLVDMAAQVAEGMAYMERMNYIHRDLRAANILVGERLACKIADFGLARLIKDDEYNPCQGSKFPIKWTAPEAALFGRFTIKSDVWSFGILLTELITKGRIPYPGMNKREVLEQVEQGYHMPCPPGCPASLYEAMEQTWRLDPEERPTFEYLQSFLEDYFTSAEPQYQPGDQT
Sequence of Fibroblast growth factor receptor 3 (Homo sapiens) (P22607 23-806 limits assumed): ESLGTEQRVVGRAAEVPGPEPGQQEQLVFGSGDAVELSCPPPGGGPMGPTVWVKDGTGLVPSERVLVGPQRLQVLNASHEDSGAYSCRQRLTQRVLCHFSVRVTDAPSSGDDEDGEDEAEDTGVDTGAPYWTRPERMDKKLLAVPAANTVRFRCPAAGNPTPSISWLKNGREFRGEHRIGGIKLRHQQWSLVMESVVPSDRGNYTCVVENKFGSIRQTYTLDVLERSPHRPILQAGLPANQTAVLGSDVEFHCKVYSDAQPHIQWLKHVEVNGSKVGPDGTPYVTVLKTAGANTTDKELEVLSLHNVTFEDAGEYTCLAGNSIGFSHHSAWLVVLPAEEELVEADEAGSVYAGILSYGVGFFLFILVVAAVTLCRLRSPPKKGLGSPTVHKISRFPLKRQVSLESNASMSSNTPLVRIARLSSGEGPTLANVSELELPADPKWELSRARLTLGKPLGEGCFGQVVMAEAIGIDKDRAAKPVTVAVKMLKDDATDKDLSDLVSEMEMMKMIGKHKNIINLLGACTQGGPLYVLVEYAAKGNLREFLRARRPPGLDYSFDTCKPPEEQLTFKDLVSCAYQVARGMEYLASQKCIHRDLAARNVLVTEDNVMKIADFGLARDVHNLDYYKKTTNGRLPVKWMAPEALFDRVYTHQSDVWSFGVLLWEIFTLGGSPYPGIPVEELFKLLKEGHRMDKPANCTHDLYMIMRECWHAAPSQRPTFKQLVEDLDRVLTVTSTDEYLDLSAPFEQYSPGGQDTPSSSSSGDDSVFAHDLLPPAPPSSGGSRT
Sequence of Tyrosine-protein kinase JAK1 (Homo sapiens) (P23458 whole entry): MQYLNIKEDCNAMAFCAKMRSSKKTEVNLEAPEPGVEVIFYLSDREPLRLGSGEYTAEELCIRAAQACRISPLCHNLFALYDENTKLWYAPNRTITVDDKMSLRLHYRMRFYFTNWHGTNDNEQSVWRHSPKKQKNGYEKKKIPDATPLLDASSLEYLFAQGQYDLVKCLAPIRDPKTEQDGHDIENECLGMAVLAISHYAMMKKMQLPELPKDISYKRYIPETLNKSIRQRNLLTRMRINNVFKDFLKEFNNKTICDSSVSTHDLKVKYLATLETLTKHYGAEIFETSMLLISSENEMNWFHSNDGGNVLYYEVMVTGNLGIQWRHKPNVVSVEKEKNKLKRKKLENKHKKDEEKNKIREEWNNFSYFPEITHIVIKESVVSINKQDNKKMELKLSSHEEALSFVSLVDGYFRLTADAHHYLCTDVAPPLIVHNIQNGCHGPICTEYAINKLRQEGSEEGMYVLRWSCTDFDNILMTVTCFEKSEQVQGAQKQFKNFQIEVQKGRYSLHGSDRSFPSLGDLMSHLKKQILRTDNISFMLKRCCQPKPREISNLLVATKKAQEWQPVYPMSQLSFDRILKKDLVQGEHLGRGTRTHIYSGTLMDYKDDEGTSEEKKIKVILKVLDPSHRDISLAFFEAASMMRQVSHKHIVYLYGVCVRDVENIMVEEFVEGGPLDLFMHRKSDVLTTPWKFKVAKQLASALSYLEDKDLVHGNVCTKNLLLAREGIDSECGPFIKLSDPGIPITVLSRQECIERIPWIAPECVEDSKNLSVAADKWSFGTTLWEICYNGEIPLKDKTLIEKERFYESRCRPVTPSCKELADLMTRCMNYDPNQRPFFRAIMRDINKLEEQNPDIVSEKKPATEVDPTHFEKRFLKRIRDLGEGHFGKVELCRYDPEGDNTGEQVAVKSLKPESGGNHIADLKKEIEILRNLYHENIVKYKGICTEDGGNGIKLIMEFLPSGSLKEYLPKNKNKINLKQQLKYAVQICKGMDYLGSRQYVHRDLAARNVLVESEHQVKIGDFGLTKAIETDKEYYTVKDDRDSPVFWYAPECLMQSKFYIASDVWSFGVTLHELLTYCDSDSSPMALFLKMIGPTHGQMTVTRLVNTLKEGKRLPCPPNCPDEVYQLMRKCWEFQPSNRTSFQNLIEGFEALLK
Sequence of Tyrosine-protein kinase Fyn (Homo sapiens) (P06241 2-537 limits assumed): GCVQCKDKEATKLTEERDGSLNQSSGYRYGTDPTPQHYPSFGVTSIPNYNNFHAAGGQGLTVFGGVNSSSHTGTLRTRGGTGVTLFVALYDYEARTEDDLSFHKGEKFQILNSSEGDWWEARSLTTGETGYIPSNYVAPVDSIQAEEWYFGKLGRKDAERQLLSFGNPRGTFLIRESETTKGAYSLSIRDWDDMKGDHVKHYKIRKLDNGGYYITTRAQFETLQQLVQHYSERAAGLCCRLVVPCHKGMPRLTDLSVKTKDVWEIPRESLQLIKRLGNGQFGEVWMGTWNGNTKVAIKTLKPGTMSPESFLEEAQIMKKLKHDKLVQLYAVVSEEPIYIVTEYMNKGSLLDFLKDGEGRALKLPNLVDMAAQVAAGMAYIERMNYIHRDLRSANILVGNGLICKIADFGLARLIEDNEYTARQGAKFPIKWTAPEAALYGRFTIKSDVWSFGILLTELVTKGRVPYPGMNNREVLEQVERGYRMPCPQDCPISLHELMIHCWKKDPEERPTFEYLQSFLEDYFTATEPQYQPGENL

COc1cc(Nc2ncc(Cl)c(-c3cccc(CC#N)c3)n2)ccc1N1CCN(C)CC1
inhibition [1]: 50%
inhibition [2]: > 80%
inhibition [3]: > 80%
inhibition [4]: > 95%
Papp A→B [5]: 8 ×10⁻⁶ cm/s
inhibition [6]: > 80%
inhibition [7]: 50%
inhibition [8]: > 80%
inhibition [9]: > 95%
inhibition [10]: > 80%
inhibition [11]: > 80%
inhibition [12]: > 95%
inhibition [13]: > 80%
Kd [14]: 86 nM
inhibition [15]: > 80%
inhibition [16]: > 95%
inhibition [17]: > 95%
Ratio IC50 [18]: 5.4
inhibition [19]: > 80%
inhibition [20]: > 95%
inhibition [21]: 50%
inhibition [22]: > 95%
inhibition [23]: > 80%
inhibition [24]: > 80%
inhibition [25]: 50%
inhibition [26]: > 80%
inhibition [27]: > 80%
inhibition [28]: > 80%
